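48-hour exposure; five concentrations; linearly interpolated endpoints. The concentration for 50% growth inhibition is given as GI50.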 Calls of active or inactive are those of the source. Rule as the data show it: active = GI50 up to about 1.1 µM and inactive = higher.
Experiments:
Assay in all cases: inhibition of tumour cell growth, NCI panel, 48 h
SR = test system: SR
BT-549 = test system: BT-549
HT-29 = test system: HT-29
OVCAR-4 = test system: OVCAR-4
SF-268 = test system: SF-268
RPMI-8226 = test system: RPMI-8226
786-0 = test system: 786-0
HOP-92 = test system: HOP-92
UACC-62 = test system: UACC-62
HOP-18 = test system: HOP-18
LXFL 529 = test system: LXFL 529
OVCAR-5 = test system: OVCAR-5
SNB-78 = test system: SNB-78
DMS-273 = test system: DMS-273
M14 = test system: M14
SF-295 = test system: SF-295
NCI-H522 = test system: NCI-H522
EKVX = test system: EKVX
SNB-75 = test system: SNB-75
ACHN = test system: ACHN

Compound | GI50 (SR) | GI50 (BT-549) | GI50 (HT-29) | GI50 (OVCAR-4) | GI50 (SF-268) | GI50 (RPMI-8226) | GI50 (786-0) | GI50 (HOP-92) | GI50 (UACC-62) | GI50 (HOP-18) | GI50 (LXFL 529) | GI50 (OVCAR-5) | GI50 (SNB-78) | GI50 (DMS-273) | GI50 (M14) | GI50 (SF-295) | GI50 (NCI-H522) | GI50 (EKVX) | GI50 (SNB-75) | GI50 (ACHN)
CS(=O)(=O)c1nc(Cl)c(Cl)c(C#N)c1Cl | 0.736 µM (active) | 1.9 µM (inactive) | 1.97 µM (inactive) | 1.96 µM (inactive) | 6.76 µM (inactive) | 2.32 µM (inactive) | 1.94 µM (inactive) | 1.99 µM (inactive) | 3.31 µM (inactive) | 6.1 µM (inactive) | 1.57 µM (inactive) | 4.39 µM (inactive) | 9.91 µM (inactive) | 6.68 µM (inactive) | 1.91 µM (inactive) | 16.7 µM (inactive) | 0.322 µM (active) | 6.27 µM (inactive) | 9.89 µM (inactive) | 2.6 µM (inactive)
CCCCCC/C=C1\CCC(CN2CCOCC2)C1=O (stereo not drawn) | 4.31 µM (inactive) |  | 17.7 µM (inactive) | 20.4 µM (inactive) | 19.6 µM (inactive) | 2.24 µM (inactive) | 4.23 µM (inactive) | 16.3 µM (inactive) | 16.8 µM (inactive) | 0.807 µM (active) | 3.3 µM (inactive) | 20.3 µM (inactive) | 21.8 µM (inactive) | 15.9 µM (inactive) | 14.6 µM (inactive) | 17.7 µM (inactive) | 7.87 µM (inactive) | 14.1 µM (inactive) | 21 µM (inactive) | 17.4 µM (inactive)
CC[C@@H](C)[C@@H]1NC(=O)C(C(C)=O)=C1O | 14.9 µM (inactive) |  | 32.1 µM (inactive) | 27.1 µM (inactive) | 24.1 µM (inactive) | 26.2 µM (inactive) | 22.4 µM (inactive) | 43.4 µM (inactive) | 12.5 µM (inactive) | 12.9 µM (inactive) | 20.7 µM (inactive) | 40.7 µM (inactive) | 23.3 µM (inactive) | 24.4 µM (inactive) | 17.1 µM (inactive) | 26.9 µM (inactive) | 20.1 µM (inactive) | 27.7 µM (inactive) | 25.4 µM (inactive) | 16.5 µM (inactive)
